From patent US20080138326A1, “Method for cancer treatment, carcinogenesis suppression or mitigation of adverse reactions of anticancer agents” (Kaneka Corporation, priority 2006, published 2008)
Marks after values point to notes of the source that are not given here.

Experiments:
[1] = tested on: aberrant crypt foci (ACF) in the rat large intestine; assay: Rat colorectal carcinogenesis model (azoxymethane-initiated aberrant crypt foci); assay type: in vivo; settings: four weeks; for Number of ACFs, 1 crypt, percent of control group / Number of ACFs, 2 crypts, percent of control group / Number of ACFs, 3 crypts, percent of control group / Number of ACFs, 4 crypts or more, percent of control group / Total ACF number/large intestine specimen, percent of control group / Total ACs number/large intestine specimen, percent of control group: control group = 100%; for Mean ACs number/focus / Number of ACFs formed in the large intestine, 1 crypt / Number of ACFs formed in the large intestine, 2 crypts / Number of ACFs formed in the large intestine, 3 crypts / Number of ACFs formed in the large intestine, 4 crypts or more / Total ACF number/large intestine specimen / Total ACs number/large intestine specimen: mean ± standard deviation
Procedure: To examine the effect of reduced coenzyme Q10 on carcinogenesis, a test was performed using a rat colorectal carcinogenesis model. This test method represents a rodent model of two-stage carcinogenesis, targeting the rat large intestine. Because carcinogenesis research using this test method is widely conducted for screening for cancer prophylactic agents and other purposes, the test results are sufficiently reliable.
Twenty-seven male F344 rats at 6 weeks of age were divided into three groups (9 animals/group) by computer-based randomized block design in a way such that no statistically significant difference would be produced in mean body weight. For initiation treatment for colorectal carcinogenesis, each rat was given azoxymethane (AOM) by subcutaneous administration at a dose of 15 mg/kg body weight once weekly for two weeks.
Starting on the day before administration of AOM, reduced coenzyme Q10 in solution in vehicle (olive oil) at a concentration of 20 or 50 mg/ml was given by gavage at doses of 0 (control group, group 1), 20, and 50 mg/kg (groups 2 and 3) on consecutive days for four weeks. The control group (group 1) received only the vehicle for administering reduced coenzyme Q10.
Four weeks after initial administration of reduced coenzyme Q10, all rats were autopsied, and the large intestine (colon and rectum, excluding the cecum) was extirpated. The large intestine with its ends ligated was fixed with injected 10% neutrally buffered formalin solution, after which the large intestine was incised and applied over filter paper flatly. Subsequently, the large intestine was post-fixed with 10% neutrally buffered formalin solution. After fixation, the large intestine was stained with 0.2% Methylene Blue solution in physiological saline for about 10 minutes, and the mucosal surface of the large intestine was examined using a stereomicroscope, whereby aberrant crypt foci (ACF), a form of precancerous lesion in colorectal cancer, were counted.
ACF was counted and classified by number of crypts present therein. Data were obtained as total ACF number per large intestine (colon and rectum) specimen, total crypt number per large intestine specimen, and mean crypt number per ACF (Table 2).
Furthermore, total ACF number per large intestine specimen was calculated according to the number of crypts in each ACF (Table 3).
For statistical analysis, Bartlett's homogeneity test was performed to compare group 1 and groups 2 and 3. […] In the case of non-homogenous dispersion, Dunnett's multiple comparison test based on a non-parametric approach (joint ranking method) was performed.

[2] = tested on: Human breast cancer-derived cells (MCF-7); assay: Suppressive effect on cell activation in cancer-derived cells (intracellular ATP content); assay type: cell-based; settings: 24 hours; for intracellular ATP content compared with control group: 80 μg/ml, Tween 80 control = 100%, P<0.0011
Procedure: The reduced coenzyme Q10 obtained in Production Example 1 and the oxidized coenzyme Q10 used as a raw material in Production Example 1 were respectively dissolved in undiluted Tween 80 (MP Biomedicals) to give test samples.
Human breast cancer-derived cells (MCF-7, supplied by ATCC) were cultured in a Dulbecco's modified MEM medium (GIBCO) supplemented with 200 U of penicillin, […] streptomycin, and 10% fetal bovine serum at 37° C. in the presence of 5% CO2. After becoming confluent, the cells were sown to a 96-well microplate (IWAKI) at 2.0×10^4 cells per well. Twenty-four hours after the sowing, the medium was replaced with a Dulbecco's modified MEM medium containing 0.5% fetal bovine serum, and the above test samples were added to said medium such that the concentrations of Tween 80 were to be […], 0.025 and 0.05% (the concentrations of the reduced coenzyme Q10 or oxidized coenzyme Q10 in the medium were 20, 40 and 80 μg/ml). Tween 80 alone was added to the Dulbecco's modified MEM medium containing 0.5% fetal bovine serum such that the concentrations were to be the same, and the resulting solution was used as a control. Twenty-four hours later, the medium was removed, and the microplate was washed with PBS (GIBCO), after which intracellular ATP contents were determined using an ATP assay kit (Perkin-Elmer) and compared. The results are shown in FIG. 2, where the determined intracellular ATP amount for the control sample is given a value of 100% and the determined intracellular ATP amounts for the test samples were compared to this value.

[3] = tested on: Normal human skin fibroblasts (NHDF); assay: Promotive effect on cell activation in skin fibroblasts (intracellular ATP content); assay type: cell-based; settings: 48 hours; for ATP level: HCO-60 solvent; for intracellular ATP levels compared with solvent control: 0.12 and 0.98 μg/ml
Procedure: The reduced coenzyme Q10 obtained in Production Example 1 and the oxidized coenzyme Q10 used as a raw material in Production Example 1 were respectively dissolved in undiluted HCO-60 (polyoxyethylene hydrogenated castor oil, Nihon Surfactant Kogyo K.K.) to give test samples.
Normal human skin fibroblasts (NHDF, Kurabo Industries) were cultured in a Medium 106S basal medium (Kurabo Industries) supplemented with 2% fetal bovine serum, 10 μg/ml heparin, 1 μg/ml hydrocortisone, 10 ng/ml human recombinant […], and human recombinant basic fibroblast growth factor 3 ng/ml, at 37° C. in the presence of 5% CO2. After becoming confluent, the cells were sown to a 96-well microplate at 2.0×10^3 cells per well. The medium used at the time of cell sowing was a Medium 106S (Kurabo Industries, Ltd.) supplemented with 2% fetal bovine serum, 10 μg/ml heparin, and 1 μg/ml hydrocortisone. After cultivation for 24 hours, the test samples were replaced with the same medium added with the oxidized or reduced coenzyme Q10 such that the concentrations were to be 0.12 and 0.98 μg/ml, and the cells were further cultured for 48 hours. The same amount of HCO-60 alone was added to the medium, and the resulting solution was used as a control. The medium was then removed, and the microplate was washed with PBS (GIBCO), after which intracellular ATP contents were determined using an ATP assay kit (Perkin-Elmer) and compared.
For statistical analysis, a parametric multiple comparison (Tukey type) was performed. In comparison with the solvent-only control group, * indicates a significance level of less than 5%, and ** indicates a significance level of less than 1%. In comparison with oxidized coenzyme Q10, † indicates a significance level of less than 5%.

[4] = tested on: Normal human skin fibroblasts (NHDF); assay: Suppressive effect on LDL-induced cell proliferation (BrdU incorporation ELISA); assay type: cell-based; settings: LDL containing reduced coenzyme Q10 (2.44-78.2 μg/ml) vs LDL control sample = 100%; 48 hours
Procedure: Human LDL (BIODESIGN) and Medium 106S (Kurabo Industries, Ltd.), a basal medium for normal human skin fibroblasts, were mixed to prepare a LDL-containing medium. The reduced coenzyme Q10 obtained in Production Example 1 was dissolved into the LDL-containing medium at 50° C. with sonication. This was followed by membrane filtration, and the filtrate obtained was used as the test sample stock solution.
Likewise, the LDL-containing medium as is (without adding reduced coenzyme Q10) was subjected to membrane filtration and the filtrate obtained was used as the control sample stock solution. The LDL concentrations of the test sample stock solution and the control sample stock solution were same.
The concentration of reduced coenzyme Q10 in the test sample stock solution was measured by high performance liquid chromatography (column: length 25 cm, diameter 4.6 mm, YMC-PACK ODS-A (YMC), mobile phase: methanol-hexane (85:15, v/v), detection wavelength: 290 nm, flow rate: 1.0 mL/min). As a result, the weight percent of reduced coenzyme Q10 based on the total weight of coenzyme Q10 in the test sample stock solution was calculated to be 84.1% by weight, and the concentration of reduced coenzyme Q10 in the test sample stock solution was calculated to be 234.68 μg/ml. […]

rats = settings: 1.2 g/kg/day for 52 consecutive weeks; cited from earlier work

Which “Number of ACFs, 1 crypt, percent of control group” value ([1]; 20 mg/kg by gavage) does the source give for `COc1c(O)c(C)c(C/C=C(\C)CC/C=C(\C)CC/C=C(\C)CC/C=C(\C)CC/C=C(\C)CC/C=C(\C)CC/C=C(\C)CC/C=C(\C)CC/C=C(\C)CCC=C(C)C)c(O)c1OC` [Reduced coenzyme Q10, reduced coenzyme Q10] here?
Its value is “(71)** %”.

What about the “Number of ACFs, 2 crypts, percent of control group” value ([1]; 20 mg/kg by gavage) of the same compound?
Its value is “(79) %”.

What about the “Number of ACFs, 3 crypts, percent of control group” value ([1]; 20 mg/kg by gavage) of the same compound?
The value was “(100) %”.

And the “Number of ACFs, 4 crypts or more, percent of control group” value ([1]; 20 mg/kg by gavage)?
The value was “(97) %”.

And the “Total ACF number/large intestine specimen, percent of control group” value ([1]; 20 mg/kg by gavage)?
Its value is “(80) %”.

And the “Total ACs number/large intestine specimen, percent of control group” value ([1]; 20 mg/kg by gavage)?
Its value is “(84) %”.

And the “Mean ACs number/focus” value ([1]; 20 mg/kg by gavage)?
Its value is 1.77 ± 0.16.

And the “Number of ACFs formed in the large intestine, 1 crypt” value ([1]; 20 mg/kg by gavage)?
Its value is 47 ± 12.

What about the “Number of ACFs formed in the large intestine, 2 crypts” value ([1]; 20 mg/kg by gavage) of the same compound?
The value was 39 ± 9.

What about the “Number of ACFs formed in the large intestine, 3 crypts” value ([1]; 20 mg/kg by gavage) of the same compound?
Its value is 18 ± 12.

And the “Number of ACFs formed in the large intestine, 4 crypts or more” value ([1]; 20 mg/kg by gavage)?
The value was 7 ± 6.

And the “Total ACF number/large intestine specimen” value ([1]; 20 mg/kg by gavage)?
The value was 113 ± 32.

And the “Total ACs number/large intestine specimen” value ([1]; 20 mg/kg by gavage)?
The value was 214 ± 81.

And the “Number of ACFs, 1 crypt, percent of control group” value ([1]; 50 mg/kg by gavage)?
The value was “(61)*** %”.

And the “Number of ACFs, 2 crypts, percent of control group” value ([1]; 50 mg/kg by gavage)?
Its value is “(70)** %”.

What about the “Number of ACFs, 3 crypts, percent of control group” value ([1]; 50 mg/kg by gavage) of the same compound?
The value was “(80) %”.

What about the “Number of ACFs, 4 crypts or more, percent of control group” value ([1]; 50 mg/kg by gavage) of the same compound?
The value was “(78) %”.

What about the “Total ACF number/large intestine specimen, percent of control group” value ([1]; 50 mg/kg by gavage) of the same compound?
Its value is “(74)* %”.

What about the “Total ACs number/large intestine specimen, percent of control group” value ([1]; 50 mg/kg by gavage) of the same compound?
The value was “(71)* %”.

And the “Mean ACs number/focus” value ([1]; 50 mg/kg by gavage)?
The value was 1.76 ± 0.33.

What about the “Number of ACFs formed in the large intestine, 1 crypt” value ([1]; 50 mg/kg by gavage) of the same compound?
The value was 40 ± 10.

And the “Number of ACFs formed in the large intestine, 2 crypts” value ([1]; 50 mg/kg by gavage)?
The value was 35 ± 11.

And the “Number of ACFs formed in the large intestine, 3 crypts” value ([1]; 50 mg/kg by gavage)?
The value was 15 ± 7.

And the “Number of ACFs formed in the large intestine, 4 crypts or more” value ([1]; 50 mg/kg by gavage)?
Its value is 6 ± 4.

What about the “Total ACF number/large intestine specimen” value ([1]; 50 mg/kg by gavage) of the same compound?
Its value is 104 ± 26.

What about the “Total ACs number/large intestine specimen” value ([1]; 50 mg/kg by gavage) of the same compound?
The value was 181 ± 54.

What about the “gross condition, mortality, food consumption, and body weight during the treatment period” value ([1]; 20 and 50 mg/kg by gavage, male F344 rats) of the same compound?
The value was “no changes associated with administration of the test substance were observed”.

And the “total ACF number and total crypt number per large intestine specimen compared with the control group” value ([1]; 20 and 50 mg/kg by gavage, statistically significant in the 50 mg/kg group)?
Its value is “decreased”.

What about the “total ACF number for 1-crypt ACF or 2-crypt ACF” value ([1]; 20 and 50 mg/kg by gavage, vs control group) of the same compound?
Its value is “decreased significantly”.

And the “intracellular ATP content, reduced compared with oxidized coenzyme Q10” value ([2]; 80 μg/ml each, P<0.05)?
The value was “significantly lower”.

And the “intracellular ATP content compared with control group” value [2]?
The value was “decreased significantly”.

What about the ATP level ([3]; 0.12 μg/ml) of the same compound?
Its ATP level is 277.21 ± 46.02**† nM.

What about the ATP level ([3]; 0.98 μg/ml) of the same compound?
The ATP level was 267.24 ± 20.72** nM.

What about the “intracellular ATP levels compared with solvent control” value [3] of the same compound?
The value was “significantly elevated”.

And the “intracellular ATP levels, reduced compared with oxidized coenzyme Q10” value [3]?
Its value is “significantly elevated”.

And the “elevation of cell division activity (BrdU incorporated in the nucleus) induced by LDL” value [4]?
Its value is “suppressed”.

With `COC1=C(OC)C(=O)C(C/C=C(\C)CC/C=C(\C)CC/C=C(\C)CC/C=C(\C)CC/C=C(\C)CC/C=C(\C)CC/C=C(\C)CC/C=C(\C)CC/C=C(\C)CCC=C(C)C)=C(C)C1=O` [Oxidized coenzyme Q10, oxidized coenzyme Q10, reference compound] as the compound, how does the “intracellular ATP content compared with control group” value [2] read?
Its value is “decreased significantly”.

And the toxic signs (rats)?
Its toxic signs is “no toxic signs were observed”.

And the ATP level ([3]; 0.12 μg/ml)?
Its ATP level is 183.23 ± 62.70* nM.

What about the ATP level ([3]; 0.98 μg/ml) of the same compound?
The ATP level was 224.84 ± 43.55* nM.

What about the “intracellular ATP levels compared with solvent control” value [3] of the same compound?
Its value is “significantly elevated”.
